Paper PMC10107917 (ACS Medicinal Chemistry Letters, 2023)
Bridge positions count the residues as written; N and C are the ends. Peptide text beside a SMILES is read from it.

What was measured:
matriptase-1 (MT1) = target: T1, matriptase-1 (MT1) (Homo sapiens, UniProt Q9Y5Y6); test: Selectivity assay against matriptase-1; assay type: biochemical; conditions: Figure S1
T1 construct: Recombinant human matriptase-1/ST14 catalytic domain; purchased R&D Systems, USA
T1 sequence (Q9Y5Y6 615-854 limits assumed): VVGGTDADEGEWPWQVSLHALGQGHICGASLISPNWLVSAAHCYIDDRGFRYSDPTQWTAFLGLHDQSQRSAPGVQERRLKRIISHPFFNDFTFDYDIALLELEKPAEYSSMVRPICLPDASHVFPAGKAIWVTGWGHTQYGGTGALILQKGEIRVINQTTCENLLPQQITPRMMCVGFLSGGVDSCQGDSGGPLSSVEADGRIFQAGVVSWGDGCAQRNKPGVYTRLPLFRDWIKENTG
Method: (§1) The selectivities of the strongest furin inhibitors 3, 5, 6, and FI were assessed using commercially available, purified, recombinant proteases, namely, matriptase-1 (MT1) and matriptase-2 (MT2). Both enzymes belong to the type II transmembrane serine proteases, present trypsin-like specificity, and share high structural similarity but differ in biological activity.[33] […]
(§2) The IC50 values (inhibitor concentrations giving 50% inhibition of enzyme activity) were calculated from plots of enzyme activity (% of control sample) versus the inhibitor’s concentration using a four-parameter fit model (GraFit 5.0.12 Erithacus Software Ltd.). The IC50 values were determined from triplicate measurements with at least seven different inhibitor concentrations. The K i values […] were calculated using the Cheng-Prusoff equation, assuming the competitive mode of inhibition, according to the following relationship: IC50 = K i(1+S/Km). All measurements were performed using a Fluostar Omega microplate reader (BMG Labtech, Germany) and 96-well black plates (BRAND, Germany). Recombinant human matriptase-1/ST14 catalytic domain was purchased from R&D Systems, USA. Recombinant human matriptase-2 was obtained from Enzo Life Sciences, Switzerland.
(§3) Soluble human recombinant furin was kindly gifted by Dr Anna Kwiatkowska (group of Prof. Robert Day from Université de Sherbrooke).4
(§4) The following assay buffers were used: […] (matriptase-1 and matriptase-2), pH 7.5 100 mM HEPES with 1 mM CaCl 2 and 1.8 mg/mL BSA (furin). The substrates used in the assays were as follows: for matriptase-1 and matriptase-2 Boc-Gln-Ala-Arg-AMC (Pepta Nova, Germany) in final concentration of 5 µM, for furin […] (Pepta Nova, Germany) in final concentration of 20 µM. Enzymes concentrations were as follows: 1.25 ng/mL of matriptase-1, 1.51 U/mL for matriptase-2, and 1.1 nM for furin. In the case of matriptase-1 and matripase-2 concentrations were calculated according to information provided by the suppliers.
(§5) In short, the tested compounds were added to the appropriate protease in different concentrations and incubated in an assay buffer at 37 °C for 30 min. […] Reactions were monitored for at least 40 min at 37 °C. […] The percentage inhibition of an enzyme was calculated relative to the control sample without an inhibitor. The K m value for furin substrate was determined by incubating the enzyme with its substrate in various concentrations as recommended.5 Plots of the substrate concentration versus the initial reaction velocity were analyzed according to Michaelis-Menten equation using GraFit 5.0.12 Erithacus Software Ltd. A double reciprocal (Lineweaver-Burk) plot was used to determine the Michaelis constant K m value. […]

matriptase-2 (MT2) = target: T2, matriptase-2 (MT2) (Homo sapiens, UniProt Q8IU80); test: Selectivity assay against matriptase-2; assay type: biochemical; conditions: Figure S1
T2 construct: purchased Enzo Life Sciences, Switzerland
T2 sequence (Q8IU80 1-811): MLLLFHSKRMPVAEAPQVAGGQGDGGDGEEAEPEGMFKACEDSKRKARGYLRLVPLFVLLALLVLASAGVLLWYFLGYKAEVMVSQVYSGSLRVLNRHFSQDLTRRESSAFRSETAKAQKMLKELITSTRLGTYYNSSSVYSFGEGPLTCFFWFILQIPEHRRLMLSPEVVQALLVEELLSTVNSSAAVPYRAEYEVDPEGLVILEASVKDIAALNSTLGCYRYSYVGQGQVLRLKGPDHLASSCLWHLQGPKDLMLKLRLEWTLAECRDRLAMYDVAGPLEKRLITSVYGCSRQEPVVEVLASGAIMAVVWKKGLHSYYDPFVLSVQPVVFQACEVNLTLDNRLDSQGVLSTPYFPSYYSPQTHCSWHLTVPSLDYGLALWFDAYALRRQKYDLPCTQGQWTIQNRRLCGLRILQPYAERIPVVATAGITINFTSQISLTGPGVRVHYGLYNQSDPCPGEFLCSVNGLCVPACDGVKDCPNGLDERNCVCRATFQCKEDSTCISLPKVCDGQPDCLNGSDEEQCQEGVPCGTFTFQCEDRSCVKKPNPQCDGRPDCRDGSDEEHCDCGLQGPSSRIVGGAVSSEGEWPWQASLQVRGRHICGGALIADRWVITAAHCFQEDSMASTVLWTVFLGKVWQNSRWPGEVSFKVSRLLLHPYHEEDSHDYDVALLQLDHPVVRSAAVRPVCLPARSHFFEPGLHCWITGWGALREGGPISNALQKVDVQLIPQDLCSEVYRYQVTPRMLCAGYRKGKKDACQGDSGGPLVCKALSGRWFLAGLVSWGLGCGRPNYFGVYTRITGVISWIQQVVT
Method: as §1, §2, §3, §4, §5

activity against MT1 (matriptase-1 (MT1)) | activity in assay with MT2 (matriptase-2 (MT2)) | Structure (SMILES)
not active | only irrelevant activity | CC[C@H](C)[C@@H]1NC(=O)[C@@H]2CCCN2C(=O)[C@@H]2CCCN2C(=O)[C@H]([C@@H](C)CC)NC(=O)[C@H](CO)NC(=O)[C@H](CCCCN)NC(=O)[C@H](CCCCN)NC(=O)[C@@H]2CSSC[C@H](NC1=O)C(=O)N[C@@H](Cc1ccccc1)C(=O)N[C@@H](CCCCN)C(=O)N[C@@H](CCCNC(=N)N)C(=O)N[C@@H](CCCNC(=N)N)C(=O)N2 [inhibitor 5, &^1Lys-Arg-Arg-Cys(&^2)-Lys-Lys-Ser-Ile-Pro-Pro-Ile-Cys(&^2)-Phe&^1] (cyclo(KRRCKKSIPPICF); disulfide 4-12)
not active | only irrelevant activity | CC[C@H](C)[C@@H]1NC(=O)[C@@H]2CCCN2C(=O)[C@@H]2CCCN2C(=O)[C@H]([C@@H](C)CC)NC(=O)[C@H](CO)NC(=O)[C@H](CCCCN)NC(=O)[C@H](CCCCN)NC(=O)[C@@H](NC(=O)[C@H](CCCNC(=N)N)NC(=O)[C@@H](N)CCCCN)CSSC[C@@H](C(=O)N[C@@H](Cc2ccccc2)C(N)=O)NC1=O [FI, Lys-Arg-Cys(&)-Lys-Lys-Ser-Ile-Pro-Pro-Ile-Cys(&)-Phe-NH2, reference compound] (H-KRCKKSIPPICF-NH2; disulfide 3-11; N-terminus assumed)
not active | only irrelevant activity | CC[C@H](C)[C@@H]1NC(=O)[C@@H]2CCCN2C(=O)[C@@H]2CCCN2C(=O)[C@H]([C@@H](C)CC)NC(=O)[C@H](CO)NC(=O)[C@H](CCCCN)NC(=O)[C@H](CCCCN)NC(=O)[C@@H]2CSSC[C@H](NC1=O)C(=O)N[C@@H](Cc1ccccc1)C(=O)N[C@@H](CCCNC(=N)N)C(=O)N[C@@H](CCCNC(=N)N)C(=O)N[C@@H](CCCNC(=N)N)C(=O)N2 [inhibitor 6, &^1Arg-Arg-Arg-Cys(&^2)-Lys-Lys-Ser-Ile-Pro-Pro-Ile-Cys(&^2)-Phe&^1] (cyclo(RRRCKKSIPPICF); disulfide 4-12)
not active | only irrelevant activity | CC[C@H](C)[C@@H]1NC(=O)[C@@H]2CCCN2C(=O)[C@@H]2CCCN2C(=O)[C@H]([C@@H](C)CC)NC(=O)[C@H](CO)NC(=O)[C@H](CCCCN)NC(=O)[C@H](CCCCN)NC(=O)[C@@H](NC(=O)[C@H](CCCNC(=N)N)NC(=O)[C@H](CCCNC(=N)N)NC(=O)[C@@H](N)CCCNC(=N)N)CSSC[C@@H](C(=O)N[C@@H](Cc2ccccc2)C(N)=O)NC1=O [inhibitor 3, Arg-Arg-Arg-Cys(&)-Lys-Lys-Ser-Ile-Pro-Pro-Ile-Cys(&)-Phe-NH2] (H-RRRCKKSIPPICF-NH2; disulfide 4-12)
